How the values were obtained:
[1] = molecular target: T1, calf intestinal musosa adenosine deaminase (Bos taurus, UniProt P56658); test: Adenosine deaminase activity; type: biochemical; settings: 80 μM adenosine, 10 minutes at 37° C.
T1 construct: 0.002 units of calf intestinal musosa adenosine deaminase; from tissue; host or cells: calf intestinal mucosa
Method: Different concentrations of the test compounds were incubated in the assay mixture for 10 minutes at 37° C. The reaction was monitored continuously for oxidation of NADH from the change in absorbance at 340 nm.

[2] = system: HPRT+ neuroblastoma cells; test: Adenosine excretion by stimulated HPRT+ neuroblastoma cells; type: cell-based; settings: 50 μM AICA riboside, calcium ionophore A23187, 1.0 μM deoxycoformycin
Method: To induce ATP catabolism, the growth medium was replaced by medium containing micromolar amounts of the calcium ionophore A23187 and 1.0 μM deoxycoformycin.

[3] = Phase 2 CABG trial: safety (serum glucose, uric acid, adverse events); type: in vivo, human
Method: In addition to the hemodynamic monitoring described above the following tests were performed at screening, on the first post-operative day and at discharge:
1. Hematology included hemoglobin, total white cell count and differential, hematocrit and platelet count.
4. Any adverse events were recorded throughout by the investigator, who assessed their severity and the relationship of these adverse experiences to the treatment.
11. Adverse Effects. The incidence, severity and drug-relatedness of any adverse effects were tabulated by treatment group by decreasing incidence of such effects in the high dose group. Statistical analysis was not performed.

[4] = molecular target: T2, purified pig heart adenosine kinase (Sus scrofa, UniProt A0A5G2R0F5); test: Adenosine kinase activity; type: biochemical; settings: 0.5 μM [U14C] adenosine, 1 mM ATP, 20 minutes at 37° C.
T2 construct: 0.1 μg of purified pig heart adenosine kinase; from tissue; host or cells: pig heart
T2 sequence (A0A5G2R0F5 1-362): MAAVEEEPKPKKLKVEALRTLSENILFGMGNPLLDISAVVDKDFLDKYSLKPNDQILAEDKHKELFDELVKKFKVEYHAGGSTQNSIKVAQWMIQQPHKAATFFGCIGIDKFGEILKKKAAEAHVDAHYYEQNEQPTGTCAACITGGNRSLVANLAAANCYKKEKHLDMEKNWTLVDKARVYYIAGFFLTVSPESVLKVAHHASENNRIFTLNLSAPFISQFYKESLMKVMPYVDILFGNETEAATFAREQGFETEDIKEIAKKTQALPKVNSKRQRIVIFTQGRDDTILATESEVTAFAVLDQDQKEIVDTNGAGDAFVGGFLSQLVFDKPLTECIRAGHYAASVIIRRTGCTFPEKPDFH
Method: Inhibition of enzyme activity was determined using a 0.1 ml assay mixture containing 50 mM Tris-maleate, pH 7.0, 0.1% (w/v) BSA, 1 mM ATP, 1 mM MgCl2, 0.5 μM [U^14 C] adenosine (500 mCi/mmol) and 0.1 μg of purified pig heart adenosine kinase. Different concentrations of test compound were incubated in the assay mixture for 20 minutes at 37° C. From each reaction mixture, 20 μl portions were removed and spotted on 2^2 pieces of Whatman DE81 filter paper. The papers were then washed to remove [^14 C] adenosine in 1 mM ammonium formate followed by deionized water and finally 95% ethanol. The papers were dried, and [^14C] AMP measured by scintillation counting. Activities were determined from the amount of [^14C] AMP formed.

[5] = molecular target: T3, NBTI-specific adenosine transport site (UniProt O54698); test: [3H]-NBTI binding assay; settings: read-out: ED50 (50% displacement of bound [3H]-NBTI); 0.5 mg neuronal membrane protein, 0.5 nM [3H]-NBTI, 30 minutes
T3 sequence (O54698 1-457): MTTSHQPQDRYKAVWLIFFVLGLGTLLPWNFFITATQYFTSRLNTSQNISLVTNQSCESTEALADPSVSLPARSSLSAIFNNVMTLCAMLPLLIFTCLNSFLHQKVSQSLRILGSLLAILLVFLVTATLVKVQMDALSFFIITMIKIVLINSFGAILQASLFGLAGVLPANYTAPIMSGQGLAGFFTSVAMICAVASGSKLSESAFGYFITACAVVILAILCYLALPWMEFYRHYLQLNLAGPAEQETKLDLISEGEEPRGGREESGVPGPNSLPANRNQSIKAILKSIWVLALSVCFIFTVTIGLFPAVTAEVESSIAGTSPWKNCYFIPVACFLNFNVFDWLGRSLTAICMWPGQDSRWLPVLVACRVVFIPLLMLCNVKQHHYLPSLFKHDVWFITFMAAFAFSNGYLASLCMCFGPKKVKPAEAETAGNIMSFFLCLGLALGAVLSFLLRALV
Method: Increasing concentrations of the test compounds were incubated for 30 minutes with 0.5 mg neuronal membrane protein together with 0.5 nM [^3 H]-NBTI in a Tris buffer (pH 7.4) at room temperature. The assays were quenched and membranes collected by rapid filtration. Filters were then solubilized and radioactivity determined by scintillation counting.

ischemic myocardium = type: in vivo, dog; settings: vs saline-treated animals, 5 and 60 minutes of ischemia
Source text: Thirteen mongrel dogs were anesthetized with phenobarbital. […] C.V. Dis. 20; 55 (1977).

T1 sequence (P56658 whole entry): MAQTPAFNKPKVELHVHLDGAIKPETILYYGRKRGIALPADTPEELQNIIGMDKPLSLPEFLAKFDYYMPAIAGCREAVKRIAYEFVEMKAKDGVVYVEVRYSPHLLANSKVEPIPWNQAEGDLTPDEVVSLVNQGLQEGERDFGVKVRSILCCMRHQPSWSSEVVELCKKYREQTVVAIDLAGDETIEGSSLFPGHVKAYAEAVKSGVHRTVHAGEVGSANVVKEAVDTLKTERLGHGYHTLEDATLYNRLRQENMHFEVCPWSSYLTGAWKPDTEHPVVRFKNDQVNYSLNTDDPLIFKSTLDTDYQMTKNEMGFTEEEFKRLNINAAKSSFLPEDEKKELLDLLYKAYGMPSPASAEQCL

For NC(=O)c1ncn([C@@H]2O[C@H](CO)[C@@H](O)[C@H]2O)c1N [1 (1-110), 5-amino-1-β-D-ribofuranosyl-imidazole-4-carboxamide], the IC50 [1] was over 5 mM, the “adenosine secreted vs control cells” value [2] was “at least twofold more adenosine than control cells” and the “SERUM GLUCOSE, MEAN BASELINE” value ([3]; 0.05 mg/kg/min (n = 41)) was 108.5 ± 4.8 mg/dL. The “SERUM URIC ACID, MEAN BASELINE” value ([3]; 0.05 mg/kg/min (n = 41)) was 5.9 ± 0.2 mg/dL, the “SERUM GLUCOSE-MEAN CHANGES FROM BASELINE” value ([3]; 0.05 mg/kg/min, 24 HR POST) was 44.2 ± 7.4 mg/dL and the “SERUM URIC ACID-MEAN CHANGES FROM BASELINE” value ([3]; 0.05 mg/kg/min, 24 HR POST) was -0.5 ± 0.2 mg/dL. For the same compound, the “SERUM GLUCOSE-MEAN CHANGES FROM BASELINE” value ([3]; 0.05 mg/kg/min, DISCHARGE) was 18.7 ± 6.3 mg/dL, the “SERUM URIC ACID-MEAN CHANGES FROM BASELINE” value ([3]; 0.05 mg/kg/min, DISCHARGE) was 0.3 ± 0.2 mg/dL and the “SERUM GLUCOSE-MEAN CHANGES FROM BASELINE” value ([3]; 0.05 mg/kg/min, ICU + 0) was 65.6 + 7.6 mg/dl. The “SERUM URIC ACID-MEAN CHANGES FROM BASELINE” value ([3]; 0.05 mg/kg/min, ICU + 0) was -0.3 ± 0.1 mg/dL, the “SERUM GLUCOSE-MEAN CHANGES FROM BASELINE” value ([3]; 0.05 mg/kg/min, ICU + 4 HR) was 53.6 + 11.9 mg/dl and the “SERUM URIC ACID-MEAN CHANGES FROM BASELINE” value ([3]; 0.05 mg/kg/min, ICU + 4 HR) was -0.1 ± 0.1 mg/dL. The “SERUM GLUCOSE-MEAN CHANGES FROM BASELINE” value ([3]; 0.05 mg/kg/min, ICU + 8 HR) was 58.8 + 12.1 mg/dl, the “SERUM URIC ACID-MEAN CHANGES FROM BASELINE” value ([3]; 0.05 mg/kg/min, ICU + 8 HR) was -0.0 ± 0.1 mg/dL and the “SERUM GLUCOSE-MEAN CHANGES FROM BASELINE” value ([3]; 0.05 mg/kg/min, POST CPB) was 116.5 ± 10.7 mg/dL. For the same compound, the “SERUM URIC ACID-MEAN CHANGES FROM BASELINE” value ([3]; 0.05 mg/kg/min, POST CPB) was -0.6 ± 0.1 mg/dL, the “SERUM GLUCOSE-MEAN CHANGES FROM BASELINE” value ([3]; 0.05 mg/kg/min, PRE CPB) was 18.6 ± 7.0 mg/dL and the “SERUM URIC ACID-MEAN CHANGES FROM BASELINE” value ([3]; 0.05 mg/kg/min, PRE CPB) was -0.1 ± 0.1 mg/dL. For the same compound, the “SERUM GLUCOSE, MEAN BASELINE” value ([3]; 0.10 mg/kg/min (n = 35)) was 120.6 ± 7.3 mg/dL, the “SERUM URIC ACID, MEAN BASELINE” value ([3]; 0.10 mg/kg/min (n = 35)) was 5.7 ± 0.2 mg/dL and the “SERUM URIC ACID-MEAN CHANGES FROM BASELINE” value ([3]; 0.10 mg/kg/min, 24 HR POST) was 0.3 ± 0.3 mg/dL. The “SERUM GLUCOSE-MEAN CHANGES FROM BASELINE” value ([3]; 0.10 mg/kg/min, DISCHARGE) was 19.2 ± 7.0 mg/dL, the “SERUM URIC ACID-MEAN CHANGES FROM BASELINE” value ([3]; 0.10 mg/kg/min, DISCHARGE) was -0.1 ± 0.2 mg/dL and the “SERUM GLUCOSE-MEAN CHANGES FROM BASELINE” value ([3]; 0.10 mg/kg/min, ICU + 0) was 59.8 + 13.6 mg/dl. For the same compound, the “SERUM URIC ACID-MEAN CHANGES FROM BASELINE” value ([3]; 0.10 mg/kg/min, ICU + 0) was 1.5 ± 0.2 mg/dL, the “SERUM GLUCOSE-MEAN CHANGES FROM BASELINE” value ([3]; 0.10 mg/kg/min, ICU + 4 HR) was 55.5 + 9.6 mg/dl and the “SERUM URIC ACID-MEAN CHANGES FROM BASELINE” value ([3]; 0.10 mg/kg/min, ICU + 4 HR) was 1.6 ± 0.2 mg/dL. The “SERUM GLUCOSE-MEAN CHANGES FROM BASELINE” value ([3]; 0.10 mg/kg/min, ICU + 8 HR) was 44.4 + 7.5 mg/dl, the “SERUM URIC ACID-MEAN CHANGES FROM BASELINE” value ([3]; 0.10 mg/kg/min, ICU + 8 HR) was 1.4 ± 0.2 mg/dL and the “SERUM GLUCOSE-MEAN CHANGES FROM BASELINE” value ([3]; 0.10 mg/kg/min, POST CPB) was 120.6 ± 15.9 mg/dL. For the same compound, the “SERUM URIC ACID-MEAN CHANGES FROM BASELINE” value ([3]; 0.10 mg/kg/min, POST CPB) was 0.4 ± 0.1 mg/dL, the “SERUM GLUCOSE-MEAN CHANGES FROM BASELINE” value ([3]; 0.10 mg/kg/min, PRE CPB) was 4.8 ± 3.4 mg/dL and the “SERUM URIC ACID-MEAN CHANGES FROM BASELINE” value ([3]; 0.10 mg/kg/min, PRE CPB) was 0.4 ± 0.1 mg/dL. The “uric acid effects in the initial high dose patients” value ([3]; 0.19 or 0.38 mg/kg/min, five drug-treated patients) was “significant hyperuricemia and elevated urinary uric acid levels with crystalluria”, the “drug-treated patients with adverse events” value ([3]; low dose group (0.05 mg/kg/min)) was 28/41 and the IC50 [4] was over 5 mM. For the same compound, the EC50 [5] was over 1 mM and the “regional myocardial blood flow to the ischemic myocardium” value (ischemic myocardium) was “significantly greater”.
